Measurements published in patent US7445892B2, “Method of testing anticancer agent-sensitivity of tumor cells” (Eisai Co., Ltd., priority 2000, dated 2008).

How the values were obtained:
Format in all cases: cell-based, human
[1] = tested on: MDA-MB-435; assay: Gene expression analysis using GeneChip in three kinds of cancers; conditions: MDA-MB-435, 8 μM for 12 hours
Description: (§1) Gene expression changes in three kinds of cancers of HCT116-C9 (human colon cancer cell strain), MDA-MB-435 (human breast cancer cell strain) and MOLT-4 (human T lymphoblastic leukemia cell strain) caused by E7070 (treated with 8 μM for 12 hours) were examined by using GeneChip in the same manner as in Example 2. A list of the genes of which expression was enhanced 1.8 times or more in common in the three kinds of cancers is shown in Table 3. Further, a list of the genes of which expression was inhibited 1.8 times or more in common in the three kinds of cancers is shown in Table 4. Since the genes of which expression varies (enhanced or reduced) in common in these strains of the three kinds of cancers established from cancer patients with totally different genetic backgrounds are very likely to be more closely associated with the E7070 antitumor action mechanism common to the tumor cells, it is considered that they can be used as valid markers when susceptibility of a tumor cell to E7070 and its related compounds is tested.

[2] = tested on: MOLT-4; assay: as above; conditions: MOLT-4, 8 μM for 12 hours
Description: as §1

[3] = tested on: LX-1-E2; assay: Gene expression analysis by quantitative PCR; conditions: resistant strain LX-1-E2, 8 μM, 0-12 hours, FIG. 5
Description: (§2) Similarly, E7070 was added to the media of an E7070-susceptible strain LX-1 and an E7070-resistant strain LX-1-E2 at a concentration of 8 μM and the cells were cultured. Cells were recovered after 0, 3, 6 and 12 hours. Total RNA was extracted from these cells and subjected to the subsequent analyses. LX-1 (Cancer Chemotherapy Center, Japan Foundation for Cancer Research, Tokyo, Japan) was a cell strain derived from human parvicellular lung cancer, and LX-1-E2 is an E7070-resistant substrain obtained by culturing this LX-1 in the presence of E7070 with gradually increasing the E7070 concentration. In order to confirm that variations in gene expression obtained in Example 2 reflected the susceptibility of a tumor cell to E7070, changes of gene expression in E7070-susceptible cells and E7070-resistant cells were examined by quantitative PCR using RNA shown in Example 1, SYBR Green and ABI Prism 7700 Sequence Detection System (Perkin-Elmer Applied Biosystems). […] The mRNA level in each specimen was quantified by measuring fluorescence intensity. In comparison of two or more specimens, quantitative values were corrected based on the mRNA level of GAPDH in each specimen. The relationships between the drug treatment time and each mRNA level are shown in FIGS. 2 to 5, where the quantified value at 0 hour after the drug treatment was used as a control (100%).

[4] = tested on: LX-1; assay: Gene expression analysis by quantitative PCR; conditions: susceptible strain LX-1, 8 μM, 0-12 hours, FIG. 3
Description: as §2

NS(=O)(=O)c1ccc(S(=O)(=O)Nc2cccc3c(Cl)c[nH]c23)cc1 [E7070, N-(3-chloro-7-indolyl)-1,4-benzenedisulfonamide]
enhancement of expression of the genes listed in Table 3 [1]: ≥ 1.8 times
inhibition of expression of the genes listed in Table 4 [1]: ≥ 1.8 times
enhancement of expression of the genes listed in Table 3 [2]: ≥ 1.8 times
inhibition of expression of the genes listed in Table 4 [2]: ≥ 1.8 times
mRNA level variation of S80343, U07919, U11791, M95809, U18291, U63743, M61764 (corrected by GAPDH) [3]: U11791 showed an expression change and M95809 and U18291 showed a slight expression change
mRNA level variation of S80343, U07919, U11791, M95809, U18291, U63743, M61764 (corrected by GAPDH) [4]: all the genes except for S80343 showed expression variations
